Experimental data published in patent publication EP4562003B1, “NOVEL 7-SUBSTITUTED INDOLE SULFONAMIDE DERIVATIVES” (F. Hoffmann-La Roche AG, priority 2022, dated 2024).

The compounds below were run against human GPR17 short isoform (Homo sapiens, UniProt Q13304) (assay: GPR17 cAMP assay (TR-FRET cAMP quantification, antagonist mode)). Conditions: CHO-K1 cells stably expressing human GPR17 short isoform; EC80 of agonist MDL29,951; forskolin 15µM; IBMX 0.5mM; 30 minutes at room temperature; read-out: hGPR17 cAMP IC50.
Assay type: cell-based
Protocol: GPR17 cAMP Assay Protocol:
CHO-K1 cells stably expressing vector containing untagged human GPR17 short isoform (Roche) were cultured at 37°C / 5% CO2 in DMEM (Dulbecco's Modified Eagle Medium):F-12 (1:1) supplemented with 10% foetal bovine serum and 400 µg/ml Geneticin.
Changes in intracellular cyclic adenosine monophosphate (cAMP) levels were quantified using the Nano-TRF Detection Assay kit (Roche Diagnostics, Cat. No. 05214386001). This assay allows for direct cAMP quantification in a homogeneous solution. cAMP is detected based on time-resolved fluorescence energy transfer (TR-FRET) and competitive binding of ruthenylated cAMP and endogenous cAMP to an anti-cAMP monoclonal antibody labeled with AlexaFluor-700. The Ruthenium complex serves as the FRET donor and transfers energy to AlexaFluor-700. The FRET signal is inversely proportional to the cAMP concentration.
CHO-GPR17S cells were detached with Accutase and resuspended in assay buffer consisting of Hank's Balanced Salt Solution (HBSS), 10mM HEPES (4-(2-hydroxyethyl) piperazine-1-ethanesulfonic acid solution) and 0.1% bovine serum albumin (pH 7.4). The cells were seeded in black 384-well plates (Corning) at a density of 10'000 cells / 20µl assay buffer until the addition of compounds.
Test antagonist compounds were serially diluted in dimethyl sulfoxide (DMSO) and spotted in 384-well plates. The compounds were then diluted in HBSS buffer supplemented with an EC80 concentration of MDL29,951 (3-(2-Carboxy-4,6-dichloroindol-3-yl)propionic acid) (GPR17 agonist) plus 3-Isobutyl-1-methylxanthine (IBMX) (0.5mM final concentration) and added to the cells at room temperature. Forskolin (15µM final concentration) was added 5 minutes after the test compounds and the cells were incubated at room temperature for 30 minutes. The assay was stopped by adding cAMP detection mix (containing detergents for cell lysis) for 90 minutes at room temperature.
Cellular cAMP was measured using a Paradigm reader (Molecular Devices). The raw data was used to calculate the FRET signal based on the assay's P-factor as per cAMP kit instructions. The data was normalized to the maximal activity of a reference antagonist and dose response curves were fitted to the percent activity of the test compounds using a sigmoidal dose response model (Genedata Screener).
Results in the hGPR17 cAMP assay are provided for compounds of formula I in Table 1 Table 1: […]

Sequence of human GPR17 short isoform (Q13304 29-367): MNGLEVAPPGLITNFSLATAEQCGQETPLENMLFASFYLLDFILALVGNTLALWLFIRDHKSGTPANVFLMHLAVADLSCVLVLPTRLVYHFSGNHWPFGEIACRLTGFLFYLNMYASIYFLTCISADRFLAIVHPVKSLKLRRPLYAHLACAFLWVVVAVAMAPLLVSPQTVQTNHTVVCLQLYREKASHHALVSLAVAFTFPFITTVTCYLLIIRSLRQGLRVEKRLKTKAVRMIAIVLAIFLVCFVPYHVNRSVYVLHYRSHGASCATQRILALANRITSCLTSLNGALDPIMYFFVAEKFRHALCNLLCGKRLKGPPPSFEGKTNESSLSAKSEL

SMILES | IC50
COc1nc(NS(=O)(=O)c2c[nH]c3c(-c4ncccn4)c(Cl)ccc23)nc(OC)c1C [Example 85, 6-chloro-N-(4,6-dimethoxy-5-methyl-pyrimidin-2-yl)-7-(2-pyrimidyl)-1H-indole-3-sulfonamide] | 44 nM
COc1nc(NS(=O)(=O)c2c[nH]c3c(-c4cnccn4)c(Br)ccc23)nc(OC)c1CC(F)F [Example 39, 6-bromo-N-[5-(2,2-difluoroethyl)-4,6-dimethoxy-pyrimidin-2-yl]-7-pyrazin-2-yl-1H-indole-3-sulfonamide] | 17 nM
COc1nc(NS(=O)(=O)c2c[nH]c3c(-c4ncc5n4CCC5)cccc23)nc(OC)c1CC(F)F [Example 121, N-[5-(2,2-difluoroethyl)-4,6-dimethoxy-pyrimidin-2-yl]-7-(6,7-dihydro-5H-pyrrol[1,2-c]imidazol-3-yl)-1H-indole-3-sulfonamide] | 46 nM
COc1nc(NS(=O)(=O)c2c[nH]c3c(-c4cnn(C)c4)c(Cl)ccc23)nc(OC)c1CC(F)F [Example 114, 6-chloro-N-[5-(2,2-difluoroethyl)-4,6-dimethoxy-pyrimidin-2-yl]-7-(1-methylpyrazol-4-yl)-1H-indole-3-sulfonamide] | 55 nM
COc1nc(NS(=O)(=O)c2c[nH]c3c(-c4cnccn4)c(Cl)ccc23)nc(OC)c1OC(F)F [Example 20, 6-chloro-N-[5-(difluoromethoxy)-4,6-dimethoxy-pyrimidin-2-yl]-7-pyrazin-2-yl-1H-indole-3-sulfonamide] | 32 nM
COc1nc(NS(=O)(=O)c2c[nH]c3c(-c4cnoc4)c(Cl)ccc23)nc(OC)c1OC(F)F [Example 119, 6-chloro-N-[5-(difluoromethoxy)-4,6-dimethoxy-pyrimidin-2-yl]-7-isoxazol-4-yl-1H-indole-3-sulfonamide] | 129 nM
COc1nc(NS(=O)(=O)c2c[nH]c3c(-c4nccnc4C)c(Cl)ccc23)nc(OC)c1CC(F)F [Example 74, 6-chloro-N-[5-(2,2-difluoroethyl)-4,6-dimethoxy-pyrimidin-2-yl]-7-(3-methylpyrazin-2-yl)-1H-indole-3-sulfonamide] | 19 nM
COc1nc(NS(=O)(=O)c2c[nH]c3c(-c4ncccn4)c(C(F)F)ccc23)nc(OC)c1CC(F)F [Example 51, N-[5-(2,2-difluoroethyl)-4,6-dimethoxy-pyrimidin-2-yl]-6-(difluoromethyl)-7-(2-pyrimidyl)-1H-indole-3-sulfonamide] | 74 nM
COc1nc(NS(=O)(=O)c2c[nH]c3c(-c4ncccn4)cccc23)nc(OC)c1CC(F)F [Example 17, N-[5-(2,2-difluoroethyl)-4,6-dimethoxy-pyrimidin-2-yl]-7-(2-pyrimidyl)-1H-indole-3-sulfonamide] | 806 nM
COc1nc(NS(=O)(=O)c2c[nH]c3c(-c4cnccn4)c(Cl)ccc23)nc(OC)c1CC(F)F [Example 15, 6-chloro-N-[5-(2,2-difluoroethyl)-4,6-dimethoxy-pyrimidin-2-yl]-7-pyrazin-2-yl-1H-indole-3-sulfonamide] | 27 nM
COc1nc(NS(=O)(=O)c2c[nH]c3c(-c4cnoc4)c(Cl)ccc23)nc(OC)c1OCC(F)F [Example 118, 6-chloro-N-[5-(2,2-difluoroethoxy)-4,6-dimethoxy-pyrimidin-2-yl]-7-isoxazol-4-yl-1H-indole-3-sulfonamide] | 63 nM
COc1nc(NS(=O)(=O)c2c[nH]c3c(-c4cnn(C)c4)c(Cl)ccc23)nc(OC)c1OCCF [Example 112, 6-chloro-N-[5-(2-fluoroethoxy)-4,6-dimethoxy-pyrimidin-2-yl]-7-(1-methylpyrazol-4-yl)-1H-indole-3-sulfonamide] | 52 nM
COc1nc(NS(=O)(=O)c2c[nH]c3c(-c4cnn(C)n4)c(Cl)ccc23)nc(OC)c1CC(F)F [Example 108, 6-chloro-N-[5-(2,2-difluoroethyl)-4,6-dimethoxy-pyrimidin-2-yl]-7-(2-methyltriazol-4-yl)-1H-indole-3-sulfonamide] | 32 nM
COc1nc(NS(=O)(=O)c2c[nH]c3c(-c4cccc(C)n4)c(Cl)ccc23)nc(OC)c1OC(F)F [Example 94, 6-chloro-N-[5-(difluoromethoxy)-4,6-dimethoxy-pyrimidin-2-yl]-7-(6-methyl-2-pyridyl)-1H-indole-3-sulfonamide] | 20 nM

Further lines, results first:

IC50 | SMILES
55 nM | COc1nc(NS(=O)(=O)c2c[nH]c3c(-c4nccnc4Cl)c(Cl)ccc23)nc(OC)c1OCC(F)F [Example 66, 6-chloro-7-(3-chloropyrazin-2-yl)-N-[5-(2,2-difluoroethoxy)-4,6-dimethoxy-pyrimidin-2-yl]-1H-indole-3-sulfonamide]
182 nM | COc1nc(NS(=O)(=O)c2c[nH]c3c(-c4ncccn4)c(C(F)F)ccc23)nc(OC)c1OCCF [Example 44, 6-(difluoromethyl)-N-[5-(2-fluoroethoxy)-4,6-dimethoxy-pyrimidin-2-yl]-7-(2-pyrimidyl)-1H-indole-3-sulfonamide]
34 nM | COc1nc(NS(=O)(=O)c2c[nH]c3c(-c4ncccn4)c(Br)ccc23)nc(OC)c1CC(F)F [Example 35, 6-bromo-N-[5-(2,2-difluoroethyl)-4,6-dimethoxy-pyrimidin-2-yl]-7-(2-pyrimidyl)-1H-indole-3-sulfonamide]
122 nM | COc1nc(NS(=O)(=O)c2c[nH]c3c(-c4ncccn4)c(Cl)ccc23)nc(OC)c1OCC#N [Example 78, 6-chloro-N-[5-(cyanomethoxy)-4,6-dimethoxy-pyrimidin-2-yl]-7-(2-pyrimidyl)-1H-indole-3-sulfonamide]
25 nM | COc1nc(NS(=O)(=O)c2c[nH]c3c(-c4cnccn4)c(Cl)ccc23)nc(OC)c1OCC(F)F [Example 16, 6-chloro-N-[5-(2,2-difluoroethoxy)-4,6-dimethoxy-pyrimidin-2-yl]-7-pyrazin-2-yl-1H-indole-3-sulfonamide]
40 nM | COc1nc(NS(=O)(=O)c2c[nH]c3c(-c4cscn4)c(Cl)ccc23)nc(OC)c1OCC(F)F [Example 115, 6-chloro-N-[5-(2,2-difluoroethoxy)-4,6-dimethoxy-pyrimidin-2-yl]-7-thiazol-4-yl-1H-indole-3-sulfonamide]
46 nM | COc1nc(NS(=O)(=O)c2c[nH]c3c(-c4ccnnc4)c(Cl)ccc23)nc(OC)c1OCC(F)F [Example 95, 6-chloro-N-[5-(2,2-difluoroethoxy)-4,6-dimethoxy-pyrimidin-2-yl]-7-pyridazin-4-yl-1H-indole-3-sulfonamide]
18 nM | COc1nc(NS(=O)(=O)c2c[nH]c3c(-c4ccccn4)c(Cl)ccc23)nc(OC)c1OCC(F)F [Example 19, 6-chloro-N-[5-(2,2-difluoroethoxy)-4,6-dimethoxy-pyrimidin-2-yl]-7-(2-pyridyl)-1H-indole-3-sulfonamide]
120 nM | COc1nc(NS(=O)(=O)c2c[nH]c3c(-c4ncccn4)c(F)ccc23)nc(OC)c1CC(F)F [Example 27, N-[5-(2,2-difluoroethyl)-4,6-dimethoxy-pyrimidin-2-yl]-6-fluoro-7-(2-pyrimidyl)-1H-indole-3-sulfonamide]
35 nM | COc1nc(NS(=O)(=O)c2c[nH]c3c(-c4nccnc4F)c(Cl)ccc23)nc(OC)c1OCC(F)F [Example 98, 6-chloro-N-[5-(2,2-difluoroethoxy)-4,6-dimethoxy-pyrimidin-2-yl]-7-(3-fluoropyrazin-2-yl)-1H-indole-3-sulfonamide]
86 nM | COc1nc(NS(=O)(=O)c2c[nH]c3c(-c4ncccn4)c(C)ccc23)nc(OC)c1OCC(F)F [Example 48, N-[5-(2,2-difluoroethoxy)-4,6-dimethoxy-pyrimidin-2-yl]-6-methyl-7-(2-pyrimidyl)-1H-indole-3-sulfonamide]
121 nM | COc1nc(NS(=O)(=O)c2c[nH]c3c(-c4ncccn4)c(Cl)c(F)cc23)nc(OC)c1OCC(F)F [Example 60, 6-chloro-N-[5-(2,2-difluoroethoxy)-4,6-dimethoxy-pyrimidin-2-yl]-5-fluoro-7-(2-pyrimidyl)-1H-indole-3-sulfonamide]
1420 nM | COc1nc(NS(=O)(=O)c2c[nH]c3c(-c4ncccn4)cccc23)nc(OC)c1OCC(F)F [Example 72, N-[5-(2,2-difluoroethoxy)-4,6-dimethoxy-pyrimidin-2-yl]-7-(2-pyrimidyl)-1H-indole-3-sulfonamide]
261 nM | COc1nc(NS(=O)(=O)c2c[nH]c3c(-c4cnc(Cl)cn4)c(Cl)ccc23)nc(OC)c1OCC(F)F [Example 90, 6-chloro-7-(5-chloropyrazin-2-yl)-N-[5-(2,2-difluoroethoxy)-4,6-dimethoxy-pyrimidin-2-yl]-1H-indole-3-sulfonamide]
